Source: patent publication US20140128336A1, “MEDICAL PRODUCTS FOR USE IN CONDITIONS RELATED TO MICROBIAL INFECTIONS IN THE UPPER AERODIGESTIVE TRACT” (BIOHIT OYJ, priority 2011, published 2014)

Key:
[1] = test system: H. pylori strains (NCTC 11637, ATCC 43504); assay: Modified pellicle assay for H. pylori biofilm formation; format: cell-based, Helicobacter pylori
Description: In this example, H. pylori strains (NCTC 11637, National Culture Collection, London, UK, and ATCC 43504, American Type Culture Collection), grown in liquid culture without shaking, were examined to determine their ability to form biofilms in the presence and absence of L-cysteine. The bacteria were screened for biofilm production using modified pellicle assay as previously described by Joshua et al. 2006 (14). The formation of pellicles at the liquid-gas interface of cultures grown without shaking was observed after 3-6 days. All isolates were grown in 13-by 125-mm glass test tubes containing 6 ml of BHI broth supplemented with 2% (w/v) β-cyclodextrin (BCD; Sigma) in the presence and absence of L-cysteine. The bacterial concentration was adjusted equivalently to approximately 0.5 McFarland standard (˜10^8 CFU/ml). The cultures were incubated under microaerobic conditions (N2 85%; O2 5%; CO2 10%) at 35° C. for 7 days without shaking. Development of pellicle and/or attached bacterial cells at interior surface of test tube at the air-liquid interface, representing as biofilm, was examined daily. In the tests using L-cysteine and N-acetyl-cysteine, increasing amounts of L-cysteine or N-acetyl-cysteine were added in increasing concentrations to the culture medium.

[2] = test system: H. pylori; assay: Open-label randomized trial, eradication of Helicobacter pylori; format: in vivo, human; settings: patients with at least four eradication failures; 600 mg NAC once a day for seven days before culture-guided antibiotic regimen; standard group 4/20
Procedure: In this open-label randomized trial, 50% of patients with at least four H. pylori eradication failures received before culture-guided antibiotic regimen 600 mg of N-acetylcysteine (NAC) once a day for seven days. In the NAC-pretreatment group H. pylori were successfully eradicated in 13/20 and in standard group only in 4/20 patients (p<01).

[3] = test system: Cladosporium cladosporioides; settings: cited from earlier work
[4] = test system: C. cladosporioides; settings: block containing cysteine; cited from earlier work

## N[C@@H](CS)C(=O)O [L-cysteine]
[1]; 2 mg/ml in culture medium
  inhibition of H. pylori biofilm formation: partly
[1]; 10 mg/ml in culture medium
  inhibition of H. pylori biofilm formation: completely
[1]; 20 mg/ml in culture medium
  inhibition of H. pylori biofilm formation: completely

## CC(=O)N[C@@H](CS)C(=O)O [N-acetylcysteine, reference compound]
[2]
  H. pylori successfully eradicated: 13/20
[1]; 2 mg/ml in culture medium
  inhibition of H. pylori biofilm formation: partly
[1]; 10 mg/ml in culture medium
  inhibition of H. pylori biofilm formation: completely
[1]; 20 mg/ml in culture medium
  inhibition of H. pylori biofilm formation: completely

## N[C@@H](CS)C(=O)O [cysteine]
[3]
  production of ATP in C. cladosporioides: inhibited
[3]; cultured with cysteine
  growth of Cladosporium cladosporioides: completely and statically inhibited
[4]
  biofilm of C. cladosporioides on surface of silicone block: not covered with biofilm
